Ki data for eleven molecules are collected here from article PMC7011995, “Steroids interfere with human carbonic anhydrase activity by using alternative binding mechanisms” (Journal of Enzyme Inhibition and Medicinal Chemistry, 2018).

Molecules are shown by their SMILES.

The target in one assay is T1, hCA I (Homo sapiens, UniProt P00915).
T1 construct: gene CA1; recombinant, obtained in-house; cytosolic
T1 sequence (P00915 2-261): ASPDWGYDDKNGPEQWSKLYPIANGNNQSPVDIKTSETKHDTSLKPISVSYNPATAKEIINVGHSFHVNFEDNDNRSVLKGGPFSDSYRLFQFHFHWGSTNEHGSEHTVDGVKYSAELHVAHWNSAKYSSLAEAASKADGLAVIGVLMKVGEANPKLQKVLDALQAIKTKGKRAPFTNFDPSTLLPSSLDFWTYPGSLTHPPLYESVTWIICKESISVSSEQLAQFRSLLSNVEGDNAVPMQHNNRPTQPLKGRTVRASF
Description: stopped-flow CO2 hydration assay, phenol red. It counts as biochemical. To be noted: read-out: hCAI. The source says:
stopped-flow CO2 hydration assay, phenol red on hCA I
As for `C[C@H](CCC(=O)O)[C@H]1CC[C@H]2[C@@H]3[C@H](O)C[C@@H]4C[C@H](O)CC[C@]4(C)[C@H]3C[C@H](O)[C@]12C` [compound 2, Cholic acid], the Ki was more than 100 µM.
Take `C[C@H](CCC(=O)O)[C@H]1CC[C@H]2[C@@H]3[C@H](O)C[C@@H]4C[C@H](O)CC[C@]4(C)[C@H]3CC[C@]12C` [compound 1, Chenodeoxycholic acid]: the Ki was more than 100 µM.
`C[C@H](CCC(=O)O)[C@H]1CC[C@H]2[C@@H]3[C@@H](O)C[C@@H]4C[C@H](O)CC[C@]4(C)[C@H]3CC[C@]12C` [compound 5, Ursodeoxycholic acid]: the Ki was 95.9 µM.
On to `C[C@]12CCC(=O)C=C1CC[C@@H]1[C@@H]2[C@@H](O)C[C@@]2(C)[C@H]1CC[C@]2(O)C(=O)CO` [compound 21, Hydrocortisone], for which the Ki was more than 100 µM.
Same read-out and setting: the value for `C[C@@H]1CC[C@@]2(OC1)O[C@H]1C[C@H]3[C@@H]4CC=C5C[C@@H](O)CC[C@]5(C)[C@H]4CC[C@]3(C)[C@H]1[C@@H]2C` [compound 22, Diosgenin] was more than 100 µM; that for `CC(C)CCC[C@@H](C)[C@H]1CC[C@H]2[C@@H]3CC[C@@H]4C[C@@H](O)CC[C@]4(C)[C@H]3CC[C@]12C` [compound 12, Coprostan-3-ol] was more than 100 µM.
The same measure, in the same setting: the value for `C[C@H](CCC(=O)O)[C@H]1CC[C@H]2[C@@H]3CC[C@@H]4C[C@H](O)CC[C@]4(C)[C@H]3CC[C@]12C` [compound 3, Lithocholic acid] was more than 100 µM.
The same measure, in the same setting: the value for `C[C@H](CCC(=O)NCC(=O)O)[C@H]1CC[C@H]2[C@@H]3[C@@H](O)C[C@@H]4C[C@H](O)CC[C@]4(C)[C@H]3CC[C@]12C` [compound 6, Glycoursodeoxycholic acid] was more than 100 µM; that for `CC(=O)[C@H]1CC[C@H]2[C@@H]3CCC4=CC(=O)CC[C@]4(C)[C@H]3[C@H](O)C[C@]12C` [compound 18, 11α-Hydroxyprogesterone] was more than 100 µM; that for `C[C@H](CCC(=O)O)[C@H]1CC[C@H]2[C@@H]3CC[C@@H]4C[C@H](O)CC[C@]4(C)[C@H]3C[C@H](O)[C@]12C` [compound 4, Deoxycholic acid] was more than 100 µM.
For `C[C@]12CC[C@@H]3c4ccc(O)cc4CC[C@H]3[C@@H]1CCC2=O` [compound 20, Estron], the Ki was more than 100 µM.

The target in a further assay is T2, hCA IV (Homo sapiens, UniProt P22748).
T2 construct: gene CA4; recombinant, obtained in-house
T2 sequence (P22748 19-284): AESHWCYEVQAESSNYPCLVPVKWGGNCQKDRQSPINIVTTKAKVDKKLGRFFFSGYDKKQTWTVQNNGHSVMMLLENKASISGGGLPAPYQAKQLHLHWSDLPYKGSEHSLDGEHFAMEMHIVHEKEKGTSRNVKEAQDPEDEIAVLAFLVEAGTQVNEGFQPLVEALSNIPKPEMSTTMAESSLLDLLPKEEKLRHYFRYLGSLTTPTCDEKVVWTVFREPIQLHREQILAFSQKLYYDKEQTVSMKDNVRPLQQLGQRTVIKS
Description: stopped-flow CO2 hydration assay, phenol red. It counts as biochemical. Conditions: read-out: hCA IV. The source says:
stopped-flow CO2 hydration assay, phenol red on hCA IV
For `C[C@H](CCC(=O)O)[C@H]1CC[C@H]2[C@@H]3[C@@H](O)C[C@@H]4C[C@H](O)CC[C@]4(C)[C@H]3CC[C@]12C` [compound 5, Ursodeoxycholic acid], the Ki was more than 100 µM.

Another assay addresses T3, hCA II (Homo sapiens, UniProt P00918).
T3 construct: gene CA2; recombinant, obtained in-house; cytosolic
Description: stopped-flow CO2 hydration assay, phenol red. It counts as biochemical. To be noted: read-out: hCA II. From the text:
stopped-flow CO2 hydration assay, phenol red on hCA II
Take `C[C@H](CCC(=O)O)[C@H]1CC[C@H]2[C@@H]3[C@H](O)C[C@@H]4C[C@H](O)CC[C@]4(C)[C@H]3C[C@H](O)[C@]12C` [compound 2, Cholic acid]: the Ki worked out at 48.9 µM.
Same read-out and setting: the value for `C[C@H](CCC(=O)O)[C@H]1CC[C@H]2[C@@H]3[C@H](O)C[C@@H]4C[C@H](O)CC[C@]4(C)[C@H]3CC[C@]12C` [compound 1, Chenodeoxycholic acid] was 53.9 µM; that for `C[C@H](CCC(=O)O)[C@H]1CC[C@H]2[C@@H]3[C@@H](O)C[C@@H]4C[C@H](O)CC[C@]4(C)[C@H]3CC[C@]12C` [compound 5, Ursodeoxycholic acid] was 71.4 µM.
On the same count and under the same terms, the value for `C[C@H](CCC(=O)O)[C@H]1CC[C@H]2[C@@H]3CC[C@@H]4C[C@H](O)CC[C@]4(C)[C@H]3CC[C@]12C` [compound 3, Lithocholic acid] was 64.5 µM.
On the same count and under the same terms, the value for `C[C@H](CCC(=O)NCC(=O)O)[C@H]1CC[C@H]2[C@@H]3[C@@H](O)C[C@@H]4C[C@H](O)CC[C@]4(C)[C@H]3CC[C@]12C` [compound 6, Glycoursodeoxycholic acid] was 78.4 µM.
As to `C[C@H](CCC(=O)O)[C@H]1CC[C@H]2[C@@H]3CC[C@@H]4C[C@H](O)CC[C@]4(C)[C@H]3C[C@H](O)[C@]12C` [compound 4, Deoxycholic acid], the Ki is 51 µM.
The same measure, in the same setting: the value for `C[C@]12CC[C@@H]3c4ccc(O)cc4CC[C@H]3[C@@H]1CCC2=O` [compound 20, Estron] was 50.8 µM.

The next assay concerns the target T4, hCA IX (Homo sapiens, UniProt Q16790).
T4 construct: gene CA9; recombinant, obtained in-house; tumor-associated transmembrane isoform
The assay can be described thus: stopped-flow CO2 hydration assay, phenol red. It counts as biochemical. Conditions: read-out: hCA IX. The source says:
stopped-flow CO2 hydration assay, phenol red on hCA IX
Take `C[C@H](CCC(=O)O)[C@H]1CC[C@H]2[C@@H]3[C@H](O)C[C@@H]4C[C@H](O)CC[C@]4(C)[C@H]3C[C@H](O)[C@]12C` [compound 2, Cholic acid]: the Ki turned out to be 47.1 µM.
For the molecule `C[C@H](CCC(=O)O)[C@H]1CC[C@H]2[C@@H]3[C@H](O)C[C@@H]4C[C@H](O)CC[C@]4(C)[C@H]3CC[C@]12C` [compound 1, Chenodeoxycholic acid], the Ki worked out at 63 µM.
As for `C[C@H](CCC(=O)O)[C@H]1CC[C@H]2[C@@H]3[C@@H](O)C[C@@H]4C[C@H](O)CC[C@]4(C)[C@H]3CC[C@]12C` [compound 5, Ursodeoxycholic acid], the Ki is 73.1 µM.
The same measure, in the same setting: the value for `C[C@H](CCC(=O)O)[C@H]1CC[C@H]2[C@@H]3CC[C@@H]4C[C@H](O)CC[C@]4(C)[C@H]3CC[C@]12C` [compound 3, Lithocholic acid] was 70.2 µM.
The same measure, in the same setting: the value for `C[C@H](CCC(=O)NCC(=O)O)[C@H]1CC[C@H]2[C@@H]3[C@@H](O)C[C@@H]4C[C@H](O)CC[C@]4(C)[C@H]3CC[C@]12C` [compound 6, Glycoursodeoxycholic acid] was 89.9 µM; that for `C[C@H](CCC(=O)O)[C@H]1CC[C@H]2[C@@H]3CC[C@@H]4C[C@H](O)CC[C@]4(C)[C@H]3C[C@H](O)[C@]12C` [compound 4, Deoxycholic acid] was 55 µM; that for `C[C@]12CC[C@@H]3c4ccc(O)cc4CC[C@H]3[C@@H]1CCC2=O` [compound 20, Estron] was 71.4 µM.

Another assay deals with T2, hCA IV. Description: stopped-flow CO2 hydration assay, phenol red. It counts as biochemical. Conditions: read-out: hCAI.
On to `C[C@H](CCC(=O)O)[C@H]1CC[C@H]2[C@@H]3[C@H](O)C[C@@H]4C[C@H](O)CC[C@]4(C)[C@H]3C[C@H](O)[C@]12C` [compound 2, Cholic acid], for which the Ki is more than 100 µM.
`C[C@H](CCC(=O)O)[C@H]1CC[C@H]2[C@@H]3[C@H](O)C[C@@H]4C[C@H](O)CC[C@]4(C)[C@H]3CC[C@]12C` [compound 1, Chenodeoxycholic acid]: the Ki was more than 100 µM.
Same read-out and setting: the value for `C[C@]12CCC(=O)C=C1CC[C@@H]1[C@@H]2[C@@H](O)C[C@@]2(C)[C@H]1CC[C@]2(O)C(=O)CO` [compound 21, Hydrocortisone] was more than 100 µM; that for `C[C@@H]1CC[C@@]2(OC1)O[C@H]1C[C@H]3[C@@H]4CC=C5C[C@@H](O)CC[C@]5(C)[C@H]4CC[C@]3(C)[C@H]1[C@@H]2C` [compound 22, Diosgenin] was more than 100 µM.
The same measure, in the same setting: the value for `CC(C)CCC[C@@H](C)[C@H]1CC[C@H]2[C@@H]3CC[C@@H]4C[C@@H](O)CC[C@]4(C)[C@H]3CC[C@]12C` [compound 12, Coprostan-3-ol] was more than 100 µM; that for `C[C@H](CCC(=O)O)[C@H]1CC[C@H]2[C@@H]3CC[C@@H]4C[C@H](O)CC[C@]4(C)[C@H]3CC[C@]12C` [compound 3, Lithocholic acid] was more than 100 µM.
Still for that read-out and setting: the value for `C[C@H](CCC(=O)NCC(=O)O)[C@H]1CC[C@H]2[C@@H]3[C@@H](O)C[C@@H]4C[C@H](O)CC[C@]4(C)[C@H]3CC[C@]12C` [compound 6, Glycoursodeoxycholic acid] was more than 100 µM.
As to `CC(=O)[C@H]1CC[C@H]2[C@@H]3CCC4=CC(=O)CC[C@]4(C)[C@H]3[C@H](O)C[C@]12C` [compound 18, 11α-Hydroxyprogesterone], the Ki was more than 100 µM.
In the case of `C[C@H](CCC(=O)O)[C@H]1CC[C@H]2[C@@H]3CC[C@@H]4C[C@H](O)CC[C@]4(C)[C@H]3C[C@H](O)[C@]12C` [compound 4, Deoxycholic acid], the Ki is more than 100 µM.
Same read-out and setting: the value for `C[C@]12CC[C@@H]3c4ccc(O)cc4CC[C@H]3[C@@H]1CCC2=O` [compound 20, Estron] was more than 100 µM.

In a further assay the target is T3, hCA II. The assay can be described thus: stopped-flow CO2 hydration assay, phenol red. It counts as biochemical. Conditions: read-out: hCAI.
As for `C[C@]12CCC(=O)C=C1CC[C@@H]1[C@@H]2[C@@H](O)C[C@@]2(C)[C@H]1CC[C@]2(O)C(=O)CO` [compound 21, Hydrocortisone], the Ki is more than 100 µM.
Take `C[C@@H]1CC[C@@]2(OC1)O[C@H]1C[C@H]3[C@@H]4CC=C5C[C@@H](O)CC[C@]5(C)[C@H]4CC[C@]3(C)[C@H]1[C@@H]2C` [compound 22, Diosgenin]: the Ki is more than 100 µM.
On to `CC(C)CCC[C@@H](C)[C@H]1CC[C@H]2[C@@H]3CC[C@@H]4C[C@@H](O)CC[C@]4(C)[C@H]3CC[C@]12C` [compound 12, Coprostan-3-ol], for which the Ki was more than 100 µM.
The same measure, in the same setting: the value for `CC(=O)[C@H]1CC[C@H]2[C@@H]3CCC4=CC(=O)CC[C@]4(C)[C@H]3[C@H](O)C[C@]12C` [compound 18, 11α-Hydroxyprogesterone] was more than 100 µM.

In a further assay the target is T4, hCA IX. Description: stopped-flow CO2 hydration assay, phenol red. It counts as biochemical. Conditions: read-out: hCAI.
`C[C@]12CCC(=O)C=C1CC[C@@H]1[C@@H]2[C@@H](O)C[C@@]2(C)[C@H]1CC[C@]2(O)C(=O)CO` [compound 21, Hydrocortisone]: the Ki is more than 100 µM.
On the same count and under the same terms, the value for `C[C@@H]1CC[C@@]2(OC1)O[C@H]1C[C@H]3[C@@H]4CC=C5C[C@@H](O)CC[C@]5(C)[C@H]4CC[C@]3(C)[C@H]1[C@@H]2C` [compound 22, Diosgenin] was more than 100 µM; that for `CC(C)CCC[C@@H](C)[C@H]1CC[C@H]2[C@@H]3CC[C@@H]4C[C@@H](O)CC[C@]4(C)[C@H]3CC[C@]12C` [compound 12, Coprostan-3-ol] was more than 100 µM.
On the same count and under the same terms, the value for `CC(=O)[C@H]1CC[C@H]2[C@@H]3CCC4=CC(=O)CC[C@]4(C)[C@H]3[C@H](O)C[C@]12C` [compound 18, 11α-Hydroxyprogesterone] was more than 100 µM.
